Measurements from ChEMBL document CHEMBL1201862, “PubChem BioAssay data set” (2004).
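Grown in 96-well plates, cells were treated for 48 hours with each compound at five concentrations. Insufficient inhibition: endpoint recorded as highest concentration tested. GI50 marks 50% less growth.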 Calls of active or inactive are those of the source. No stated cut-off is given here; in the data, active = GI50 up to about 1.1 µM and inactive = higher.

Key:
Test in all cases: growth of human tumour cells (NCI), 48 h
[1] = test system: Malme-3M
[2] = test system: NCI-H226
[3] = test system: HCT-116
[4] = test system: LOX IMVI
[5] = test system: HOP-92
[6] = test system: RPMI-8226
[7] = test system: RXF 393
[8] = test system: SK-MEL-28
[9] = test system: CAKI-1
[10] = test system: U-251
[11] = test system: SK-OV-3
[12] = test system: NCI-H23
[13] = test system: OVCAR-8
[14] = test system: SK-MEL-5
[15] = test system: IGROV-1
[16] = test system: HOP-62
[17] = test system: HCT-15
[18] = test system: CCRF-CEM

Row | SMILES | GI50 [1] | GI50 [2] | GI50 [3] | GI50 [4] | GI50 [5] | GI50 [6] | GI50 [7] | GI50 [8] | GI50 [9] | GI50 [10] | GI50 [11] | GI50 [12] | GI50 [13] | GI50 [14] | GI50 [15] | GI50 [16] | GI50 [17] | GI50 [18]
1 | Cc1ccc(S(=O)(=O)SCc2ccccc2CSS(=O)(=O)c2ccc(C)cc2)cc1 | 24.2 µM (inactive) | > 100 µM (inactive) | 21.3 µM (inactive) | 15.8 µM (inactive) | 21.7 µM (inactive) | 17.5 µM (inactive) | 15.7 µM (inactive) | 19.1 µM (inactive) | 22.9 µM (inactive) | 28.6 µM (inactive) | > 100 µM (inactive) | 18.8 µM (inactive) | 24.5 µM (inactive) | 59.4 µM (inactive) | > 100 µM (inactive) | > 100 µM (inactive) | 19.5 µM | 
2 | O=C(C(=O)c1ccc(Cc2ccc(C(=O)C(=O)c3ccccc3)cc2)cc1)c1ccccc1 | > 100 µM (inactive) | > 100 µM (inactive) | > 100 µM (inactive) | > 100 µM (inactive) | > 100 µM (inactive) |  | > 100 µM (inactive) | > 100 µM (inactive) | > 100 µM (inactive) | > 100 µM (inactive) | > 100 µM (inactive) | > 100 µM (inactive) | > 100 µM (inactive) | > 100 µM (inactive) | > 100 µM (inactive) | > 100 µM (inactive) | > 100 µM | 61.5 µM (inactive)
3 | COc1ccc2c(c1)C=C(C(C)(C)C)NS2(=O)=O | > 100 µM (inactive) | > 100 µM (inactive) | > 100 µM (inactive) | > 100 µM (inactive) | > 100 µM (inactive) |  | > 100 µM (inactive) | > 100 µM (inactive) | > 100 µM (inactive) | > 100 µM (inactive) | > 100 µM (inactive) | > 100 µM (inactive) | > 100 µM (inactive) | > 100 µM (inactive) | > 100 µM (inactive) | > 100 µM (inactive) | > 100 µM | > 100 µM (inactive)
4 | CCCn1c(SCC)c2cc3cc4ccccc4cc3cc2c1-c1nc(F)nc(F)n1 | > 100 µM (inactive) | > 100 µM (inactive) | > 100 µM (inactive) | > 100 µM (inactive) | > 100 µM (inactive) | > 100 µM (inactive) | > 100 µM (inactive) | > 100 µM (inactive) | > 100 µM (inactive) |  | > 100 µM (inactive) | > 100 µM (inactive) | > 100 µM (inactive) | > 100 µM (inactive) | > 100 µM (inactive) | > 100 µM (inactive) | > 100 µM | > 100 µM (inactive)
5 | CC1CC(c2cccc3c2OCO3)=Nc2ccccc2S1 (configuration not stated) | > 100 µM (inactive) | > 100 µM (inactive) |  | > 100 µM (inactive) | > 100 µM (inactive) | > 100 µM (inactive) | > 100 µM (inactive) | > 100 µM (inactive) | > 100 µM (inactive) |  | > 100 µM (inactive) | > 100 µM (inactive) | > 100 µM (inactive) | > 100 µM (inactive) | > 100 µM (inactive) |  | > 100 µM | > 100 µM (inactive)
6 | N#CC(C#N)C(c1ccccc1)c1ccccc1 | > 100 µM (inactive) | > 100 µM (inactive) | > 100 µM (inactive) | > 100 µM (inactive) | > 100 µM (inactive) | > 100 µM (inactive) | > 100 µM (inactive) | > 100 µM (inactive) | > 100 µM (inactive) | > 100 µM (inactive) | > 100 µM (inactive) |  | > 100 µM (inactive) | > 100 µM (inactive) | > 100 µM (inactive) | > 100 µM (inactive) | > 100 µM | > 100 µM (inactive)
7 | CCOc1ccc(NC(=O)C2=C(C)NC(C)=C(C(=O)Nc3ccc(OCC)cc3)C2c2ccccc2)cc1 | > 100 µM (inactive) | > 100 µM (inactive) |  | > 100 µM (inactive) | > 100 µM (inactive) | 49.9 µM (inactive) | > 100 µM (inactive) | > 100 µM (inactive) | > 100 µM (inactive) | > 100 µM (inactive) | > 100 µM (inactive) | > 100 µM (inactive) | > 100 µM (inactive) | 74.3 µM (inactive) | > 100 µM (inactive) | > 100 µM (inactive) |  | 31.3 µM (inactive)
8 | CC(C)[C@@H](COC(C)(C)C)/N=C/N1CCc2c([nH]c3ccccc23)C1 |  | > 100 µM (inactive) | > 100 µM (inactive) | > 100 µM (inactive) | 21.5 µM (inactive) | > 100 µM (inactive) | > 100 µM (inactive) | > 100 µM (inactive) |  | > 100 µM (inactive) | > 100 µM (inactive) | > 100 µM (inactive) | > 100 µM (inactive) | > 100 µM (inactive) | > 100 µM (inactive) | > 100 µM (inactive) | > 100 µM | > 100 µM (inactive)
